From patent US6426369B1, “Oxethazaine as antimicrobial agent” (Eisai Co., Ltd., priority 1997, dated 2002)

Legend:
H. pylori = test: Antimicrobial activity test 6: oxethazaine in combination with an antibiotic (AMPC, CAM, RXM), checker board method; format: cell-based, Helicobacter pylori; set-up: key to growth of H. pylori: “−” indicates the inhibited growth of H. pylori (presence of antimicrobial activity); “+” indicates the growth of H. pylori (absence of antimicrobial activity); details: for combined effect of oxethazaine and CAM / combined effect of oxethazaine and RXM: checker board; for effect of combined use: oxethazaine in combination with AMPC
From the text: The effect of combined use with amoxicillin (AMPC), clarithromycin (CAM) or roxithromycin (RXM) was examined in the same manner as in antimicrobial activity test 1, using the checker board method.

Gram-positive bacteria = test: Antimicrobial activity (MIC) of oxethazaine and structure analogues against Gram-positive bacteria; format: cell-based

CN(C(=O)CN(CCO)CC(=O)N(C)C(C)(C)Cc1ccccc1)C(C)(C)Cc1ccccc1 [Oxethazaine, 2,2′-[(2-hydroxyethyl)amino]bis[N-(1,1-dimethyl-2-phenylethyl)-N-methylacetamide]]
excellent effect: effect on Gram-positive bacteria (Gram-positive bacteria; conclusion)
EH 12 (additive effect): combined effect of oxethazaine and RXM (H. pylori; strain EH 12)
90-407 (additive effect): combined effect of oxethazaine and CAM (H. pylori; strain 90-407)
6.25 µg/mL: MIC (Gram-positive bacteria; Staphylococcus epidermidis, ATCC12228, S. epidermidis ATCC 12228)
12.5 µg/mL: MIC (Gram-positive bacteria; Staphylococcus aureus, FDA209, S. aureus FDA 209-P)
EH 16 (additive effect): effect of combined use (H. pylori; the 36th table, strain EH 16) | effect of combined use (H. pylori; the 37th table, strain EH 16)
EH 13 (additive effect): combined effect of oxethazaine and RXM (H. pylori; strain EH 13) | effect of combined use (H. pylori; the 36th table, strain EH 13) | effect of combined use (H. pylori; the 37th table, strain EH 13)
−: growth of H. pylori (H. pylori; strain 90-397, CAM 3.13 μg/ml, oxethazaine μg/ml: 100, 50, 25, 12.5, 6.25, 3.13, 0) | growth of H. pylori (H. pylori; strain 90-397, CAM 6.25 μg/ml, oxethazaine μg/ml: 100, 50, 25, 12.5, 6.25, 3.13, 0) | growth of H. pylori (H. pylori; strain 90-397, CAM 12.5 μg/ml, oxethazaine μg/ml: 100, 50, 25, 12.5, 6.25, 3.13, 0) | growth of H. pylori (H. pylori; strain 90-397, CAM 25 μg/ml, oxethazaine μg/ml: 100, 50, 25, 12.5, 6.25, 3.13, 0) | growth of H. pylori (H. pylori; strain 90-397, CAM 50 μg/ml, oxethazaine μg/ml: 100, 50, 25, 12.5, 6.25, 3.13, 0) | growth of H. pylori (H. pylori; strain 90-397, CAM 100 μg/ml, oxethazaine μg/ml: 100, 50, 25, 12.5, 6.25, 3.13, 0) | growth of H. pylori (H. pylori; strain 90-407, CAM 0 μg/ml (oxethazaine alone), oxethazaine μg/ml by row r14-r19: 100, 50, 25, 12.5, 6.25, 3.13) | growth of H. pylori (H. pylori; strain 90-407, CAM 0.006 μg/ml, oxethazaine μg/ml: 100, 50, 25, 12.5, 6.25, 3.13, 0) | growth of H. pylori (H. pylori; strain 90-407, CAM 0.012 μg/ml, oxethazaine μg/ml: 100, 50, 25, 12.5, 6.25, 3.13, 0) | growth of H. pylori (H. pylori; strain 90-407, CAM 0.024 μg/ml, oxethazaine μg/ml: 100, 50, 25, 12.5, 6.25, 3.13, 0) | growth of H. pylori (H. pylori; strain 90-407, CAM 0.05 μg/ml, oxethazaine μg/ml: 100, 50, 25, 12.5, 6.25, 3.13, 0) | growth of H. pylori (H. pylori; strain 90-407, CAM 0.1 μg/ml, oxethazaine μg/ml: 100, 50, 25, 12.5, 6.25, 3.13, 0) | growth of H. pylori (H. pylori; strain 90-407, CAM 0.2 μg/ml, oxethazaine μg/ml: 100, 50, 25, 12.5, 6.25, 3.13, 0) | growth of H. pylori (H. pylori; strain 90-407, CAM 6.25 μg/ml, oxethazaine μg/ml: 100, 50, 25, 12.5, 6.25, 3.13, 0) | growth of H. pylori (H. pylori; strain 90-407, CAM 12.5 μg/ml, oxethazaine μg/ml: 100, 50, 25, 12.5, 6.25, 3.13, 0) | growth of H. pylori (H. pylori; strain 90-407, CAM 25 μg/ml, oxethazaine μg/ml: 100, 50, 25, 12.5, 6.25, 3.13, 0) | growth of H. pylori (H. pylori; strain 90-407, CAM 50 μg/ml, oxethazaine μg/ml: 100, 50, 25, 12.5, 6.25, 3.13, 0) | growth of H. pylori (H. pylori; strain 90-407, CAM 100 μg/ml, oxethazaine μg/ml: 100, 50, 25, 12.5, 6.25, 3.13, 0) | growth of H. pylori (H. pylori; strain 90-407, oxethazaine 25 μg/ml, AMPC 0) | growth of H. pylori (H. pylori; strain 90-407, oxethazaine 50 μg/ml, AMPC 0) | growth of H. pylori (H. pylori; strain 90-407, oxethazaine 100 μg/ml, AMPC 0) | growth of H. pylori (H. pylori; strain 90-414, oxethazaine 25 μg/ml, AMPC 0) | growth of H. pylori (H. pylori; strain 90-414, oxethazaine 50 μg/ml, AMPC 0) | growth of H. pylori (H. pylori; strain 90-414, oxethazaine 100 μg/ml, AMPC 0) | growth of H. pylori (H. pylori; strain NCTC11637, oxethazaine 12.5 μg/ml, CAM 0) | growth of H. pylori (H. pylori; strain NCTC11637, oxethazaine 25 μg/ml, CAM 0) | growth of H. pylori (H. pylori; strain NCTC11637, oxethazaine 50 μg/ml, CAM 0) | growth of H. pylori (H. pylori; strain NCTC11637, oxethazaine 100 μg/ml, CAM 0) | growth of H. pylori (H. pylori; strain NCTC11639, oxethazaine 25 μg/ml, CAM 0) | growth of H. pylori (H. pylori; strain NCTC11639, oxethazaine 50 μg/ml, CAM 0) | growth of H. pylori (H. pylori; strain NCTC11639, oxethazaine 100 μg/ml, CAM 0)
90-397 (synergism): combined effect of oxethazaine and CAM (H. pylori; strain 90-397)
NCTC11637 (additive effect): combined effect of oxethazaine and RXM (H. pylori; strain NCTC11637) | effect of combined use (H. pylori; the 34th table, strain NCTC11637) | effect of combined use (H. pylori; the 35th table, strain NCTC11637)
+: growth of H. pylori (H. pylori; strain 90-407, oxethazaine 3.13 μg/ml, AMPC 0) | growth of H. pylori (H. pylori; strain 90-407, oxethazaine 6.25 μg/ml, AMPC 0) | growth of H. pylori (H. pylori; strain 90-407, oxethazaine 12.5 μg/ml, AMPC 0) | growth of H. pylori (H. pylori; strain 90-414, oxethazaine 3.13 μg/ml, AMPC 0) | growth of H. pylori (H. pylori; strain 90-414, oxethazaine 6.25 μg/ml, AMPC 0) | growth of H. pylori (H. pylori; strain 90-414, oxethazaine 12.5 μg/ml, AMPC 0) | growth of H. pylori (H. pylori; strain NCTC11637, oxethazaine 3.13 μg/ml, CAM 0) | growth of H. pylori (H. pylori; strain NCTC11637, oxethazaine 6.25 μg/ml, CAM 0) | growth of H. pylori (H. pylori; strain NCTC11639, oxethazaine 3.13 μg/ml, CAM 0) | growth of H. pylori (H. pylori; strain NCTC11639, oxethazaine 6.25 μg/ml, CAM 0) | growth of H. pylori (H. pylori; strain NCTC11639, oxethazaine 12.5 μg/ml, CAM 0)
25 µg/mL: MIC (Gram-positive bacteria; Enterococcus faecalis, E. faecalis RIMD 3116001)
NCTC11639 (additive effect): combined effect of oxethazaine and RXM (H. pylori; strain NCTC11639) | effect of combined use (H. pylori; the 34th table, strain NCTC11639) | effect of combined use (H. pylori; the 35th table, strain NCTC11639)
90-428 (synergism): combined effect of oxethazaine and CAM (H. pylori; strain 90-428)
